Data taken from patent publication US20240425517A1, “NOVEL COMPOUND FOR DEGRADATION OF TARGET PROTEIN OR POLYPEPTIDE BY POLYUBIQUITINATION” (PRAZER THERAPEUTICS INC., priority 2021, published 2024).

molecular target: T1, BRD4 proteins (Homo sapiens, UniProt O60885); experiment: Degradation of BRD4 protein in MM.1S cell lines (Western blot densitometry); assay type: cell-based; settings: MM.1S cells, 10 μM, 24 hours
T1 construct: endogenous in cells; host or cells: MM.1S
Description: To confirm that the compounds (BRD4 degraders) of Preparation Examples I′ to IV′ reduce the amount of BRD4 proteins, experiments were performed using MM.1S cell lines, which are B cells derived from the blood of multiple myeloma patients.
Specifically, the MM.1S cells were cultured in RPMI-1640 medium supplemented with 10% fetal bovine serum and Penicillin/Streptomycin (100 U/mL), transferred to a 6-well plate, and after 24 hours, the BRD4 degraders were diluted in the culture medium and the cells were treated with 10 μM each. After treatment, the cells were incubated in a C02 incubator for 24 hours. Through protein immunoblotting (Western Blot), the degrading capacity of each compound against BRD4 proteins in cells was confirmed. After cell culture was completed according to the experimental conditions, the cells were collected and centrifuged at 1,800 rpm for 3 minutes. The cells in the precipitate were lysed with RIPA (25 mM Tris-HCl pH 7.6, 150 mM NaCl, 1% NP-40, 1% sodium deoxycholate, 0.1% SDS, 1× Protease Inhibitor Cocktail), 5× sample buffer was added, and then heated at 100° C. for 15 minutes. The prepared sample was electrophoresed with sodium dodecyl sulfate poly acrylamide gel electrophoresis (SDS-PAGE), and then the proteins in the gel were transferred to a PVDF membrane using Trans-Blot Turbo. The membrane was treated with a 5% bovine serum albumin (BSA) solution and blocked at room temperature for 2 hours, and then BRD4 and R-actin antibodies were diluted in the 5% BSA solution to react with the membrane at 4° C. overnight. After washed with PBST (0.5% Tween20) 5 times, horse radish peroxidase (HRP)-conjugated secondary antibodies were diluted in PBST to react at room temperature for 2 hours, and then washed again with a PBST solution 5 times. After enzyme-substrate reaction was carried out using a HRP substrate, a signal was measured with chemi-doc equipment, and the densitometry of a band corresponding to the BRD4 protein detected in the Preparation Example Compounds was quantitatively analyzed. The case when the degrading capacity of each BRD4 degrader was reduced by less than 40% is indicated as +, the case when the degrading capacity was reduced by 40% to 70% (exclusive of 70) is indicated as ++, the case when the degrading capacity was reduced by 70% or more is indicated as +++ in Tables 16 to 19 below. As shown in the following Tables, it was confirmed that the compounds of Preparation Examples I′ to IV′ according to the present invention have excellent degrading capacity.

Row | Structure (SMILES) | BRD4 degrading capacity (%)
1 | Cc1sc2c(c1C)C(c1ccc(Cl)cc1)=N[C@@H](CC(=O)Nc1ccc(CO)c(C#CCN)c1)c1nnc(C)n1-2.Cl [3-27′, (S)—N-(3-(3-aminoprop-1-yn-1-yl)-4-(hydroxymethyl)phenyl)-2-(4-(4-chlorophenyl)-2,3,9-trimethyl-6H-thieno[3,2-f][1,2,4]triazolo[4,3-a][1,4]diazepin-6-yl)acetamide hydrochloride] | ++ (the degrading capacity was reduced by 40% to 70% (exclusive of 70))
2 | Cc1sc2c(c1C)C(c1ccc(Cl)cc1)=N[C@@H](CC(=O)Nc1ccc(C#CC(N)CO)cc1)c1nnc(C)n1-2.Cl (stereo partly drawn) [3-49′, N-(4-(3-amino-4-hydroxybut-1-yn-1-yl)phenyl)-2-((S)-4-(4-chlorophenyl)-2,3,9-trimethyl-6H-thieno[3,2-f][1,2,4]triazolo[4,3-a][1,4]diazepin-6-yl)acetamide hydrochloride] | ++ (the degrading capacity was reduced by 40% to 70% (exclusive of 70))
3 | Cc1sc2c(c1C)C(c1ccc(Cl)cc1)=N[C@@H](CC(=O)Nc1cccc(C#CC(N)CO)c1)c1nnc(C)n1-2.Cl (stereo partly drawn) [3-51′, N-(3-(3-amino-4-hydroxybut-1-yn-1-yl)phenyl)-2-((S)-4-(4-chlorophenyl)-2,3,9-trimethyl-6H-thieno[3,2-f][1,2,4]triazolo[4,3-a][1,4]diazepin-6-yl)acetamide hydrochloride] | +++ (the degrading capacity was reduced by 70% or more)
4 | Cc1sc2c(c1C)C(c1ccc(Cl)cc1)=N[C@@H](CC(=O)Nc1ccc(C#CC(N)COP(=O)(O)O)cc1)c1nnc(C)n1-2 (stereo partly drawn) [3-57′, 2-amino-4-(4-(2-((S)-4-(4-chlorophenyl)-2,3,9-trimethyl-6H-thieno[3,2-f][1,2,4]triazolo[4,3-a][1,4]diazepin-6-yl)acetamido)phenyl)but-3-yn-1-yl dihydrogen phosphate trifluoroacetic acid] | ++ (the degrading capacity was reduced by 40% to 70% (exclusive of 70))
5 | Cc1sc2c(c1C)C(c1ccc(Cl)cc1)=N[C@@H](CC(=O)NCC#Cc1ccc(C#CCN)o1)c1nnc(C)n1-2.Cl [4-1′, (S)—N-(3-(5-(3-aminoprop-1-yn-1-yl)furan-2-yl)prop-2-yn-1-yl)-2-(4-(4-chlorophenyl)-2,3,9-trimethyl-6H-thieno[3,2-f][1,2,4]triazolo[4,3-a][1,4]diazepin-6-yl)acetamide hydrochloride] | ++ (the degrading capacity was reduced by 40% to 70% (exclusive of 70))
6 | COC(=O)c1cc(N2CCN(C(=O)C[C@@H]3N=C(c4ccc(Cl)cc4)c4c(sc(C)c4C)-n4c(C)nnc43)CC2)ccc1C#CCN.Cl [4-2′, methyl (S)-2-(3-aminoprop-1-yn-1-yl)-5-(4-(2-(4-(4-chlorophenyl)-2,3,9-trimethyl-6H-thieno[3,2-f][1,2,4]triazolo[4,3-a][1,4]diazepin-6-yl)acetyl)piperazin-1-yl)benzoate hydrochloride] | +++ (the degrading capacity was reduced by 70% or more)
7 | Cc1sc2c(c1C)C(c1ccc(Cl)cc1)=N[C@@H](CC(=O)NCC#Cc1ccc(C#CCN)s1)c1nnc(C)n1-2.Cl [4-10′, (S)—N-(3-(5-(3-aminoprop-1-yn-1-yl)thiophen-2-yl)prop-2-yn-1-yl)-2-(4-(4-chlorophenyl)-2,3,9-trimethyl-6H-thieno[3,2-f][1,2,4]triazolo[4,3-a][1,4]diazepin-6-yl)acetamide hydrochloride] | +++ (the degrading capacity was reduced by 70% or more)
8 | Cc1sc2c(c1C)C(c1ccc(Cl)cc1)=N[C@@H](CC(=O)NCCC(=O)Nc1ccc(C#CCN)cc1)c1nnc(C)n1-2.Cl [4-124′, (S)—N-(4-(3-aminoprop-1-yn-1-yl)phenyl)-3-(2-(4-(4-chlorophenyl)-2,3,9-trimethyl-6H-thieno[3,2-f][1,2,4]triazolo[4,3-a][1,4]diazepin-6-yl)acetamido)propanamide hydrochloride] | +++ (the degrading capacity was reduced by 70% or more)
9 | Cc1sc2c(c1C)C(c1ccc(Cl)cc1)=N[C@@H](CC(=O)NCCC(=O)Nc1ccc(C#CCN)c(CO)c1)c1nnc(C)n1-2.Cl [4-125′, (S)—N-(4-(3-aminoprop-1-yn-1-yl)-3-(hydroxymethyl)phenyl)-3-(2-(4-(4-chlorophenyl)-2,3,9-trimethyl-6H-thieno[3,2-f][1,2,4]triazolo[4,3-a][1,4]diazepin-6-yl)acetamido)propanamide hydrochloride] | +++ (the degrading capacity was reduced by 70% or more)
10 | COC(=O)c1cc(NC(=O)CCNC(=O)C[C@@H]2N=C(c3ccc(Cl)cc3)c3c(sc(C)c3C)-n3c(C)nnc32)ccc1C#CCN.Cl [4-126′, methyl (S)-2-(3-aminoprop-1-yn-1-yl)-5-(3-(2-(4-(4-chlorophenyl)-2,3,9-trimethyl-6H-thieno[3,2-f][1,2,4]triazolo[4,3-a][1,4]diazepin-6-yl)acetamido)propanamido)benzoate hydrochloride] | ++ (the degrading capacity was reduced by 40% to 70% (exclusive of 70))
11 | Cc1sc2c(c1C)C(c1ccc(Cl)cc1)=N[C@@H](CC(=O)NCC#Cc1ccc(C#CCN)cc1)c1nnc(C)n1-2.Cl [4-128′] | ++ (the degrading capacity was reduced by 40% to 70% (exclusive of 70))
12 | Cc1sc2c(c1C)C(c1ccc(Cl)cc1)=N[C@@H](CC(=O)NCC#Cc1cccc(C#CCN)c1)c1nnc(C)n1-2.Cl [4-129′, (S)—N-(3-(3-(3-aminoprop-1-yn-1-yl)phenyl)prop-2-yn-1-yl)-2-(4-(4-chlorophenyl)-2,3,9-trimethyl-6H-thieno[3,2-f][1,2,4]triazolo[4,3-a][1,4]diazepin-6-yl)acetamide hydrochloride] | +++ (the degrading capacity was reduced by 70% or more)
13 | Cc1sc2c(c1C)C(c1ccc(Cl)cc1)=N[C@@H](CC(=O)NCCC#Cc1ccc(C#CCCN)o1)c1nnc(C)n1-2.Cl [4-147′, (S)—N-(4-(5-(4-aminobut-1-yn-1-yl)furan-2-yl)but-3-yn-1-yl)-2-(4-(4-chlorophenyl)-2,3,9-trimethyl-6H-thieno[3,2-f][1,2,4]triazolo[4,3-a][1,4]diazepin-6-yl)acetamide hydrochloride] | ++ (the degrading capacity was reduced by 40% to 70% (exclusive of 70))
14 | Cc1sc2c(c1C)C(c1ccc(Cl)cc1)=N[C@@H](CC(=O)NCC#CCNC(=O)c1ccc(C#CCN)o1)c1nnc(C)n1-2.Cl [4-148′, (S)-5-(3-aminoprop-1-yn-1-yl)-N-(4-(2-(4-(4-chlorophenyl)-2,3,9-trimethyl-6H-thieno[3,2-f][1,2,4]triazolo[4,3-a][1,4]diazepin-6-yl)acetamido)but-2-yn-1-yl)furan-2-carboxamide hydrochloride] | + (the degrading capacity of each BRD4 degrader was reduced by less than 40%)
15 | Cc1sc2c(c1C)C(c1ccc(Cl)cc1)=N[C@@H](CC(=O)NCCCCNC(=O)c1ccc(C#CCN)o1)c1nnc(C)n1-2.Cl [4-149′] | +++ (the degrading capacity was reduced by 70% or more)
16 | Cc1sc2c(c1C)C(c1ccc(Cl)cc1)=N[C@@H](CC(=O)NCCC(=O)Nc1cccc(C#CCN)c1)c1nnc(C)n1-2.Cl [4-161′, (S)—N-(3-(3-aminoprop-1-yn-1-yl)phenyl)-3-(2-(4-(4-chlorophenyl)-2,3,9-trimethyl-6H-thieno[3,2-f][1,2,4]triazolo[4,3-a][1,4]diazepin-6-yl)acetamido)propanamide hydrochloride] | +++ (the degrading capacity was reduced by 70% or more)
17 | Cc1sc2c(c1C)C(c1ccc(Cl)cc1)=N[C@@H](CC(=O)NCCCC(=O)Nc1ccc(C#CCN)cc1)c1nnc(C)n1-2.Cl [4-162′, (S)—N-(4-(3-aminoprop-1-yn-1-yl)phenyl)-4-(2-(4-(4-chlorophenyl)-2,3,9-trimethyl-6H-thieno[3,2-f][1,2,4]triazolo[4,3-a][1,4]diazepin-6-yl)acetamido)butanamide hydrochloride] | +++ (the degrading capacity was reduced by 70% or more)
18 | Cc1sc2c(c1C)C(c1ccc(Cl)cc1)=N[C@@H](CC(=O)NCCCCC(=O)Nc1ccc(C#CCN)cc1)c1nnc(C)n1-2.Cl [4-163′, (S)—N-(4-(3-aminoprop-1-yn-1-yl)phenyl)-5-(2-(4-(4-chlorophenyl)-2,3,9-trimethyl-6H-thieno[3,2-f][1,2,4]triazolo[4,3-a][1,4]diazepin-6-yl)acetamido)pentanamide hydrochloride] | +++ (the degrading capacity was reduced by 70% or more)
